Measured values as given in patent publication US10501425B2, “Microbiocidal oxadiazole derivatives” (SYNGENTA PARTICIPATIONS AG, priority 2015, dated 2019).

Experiments:
[1] = test system: Puccinia recondita f. Sp. Tritici; assay: Puccinia recondita f. sp. tritici / wheat / leaf disc curative (brown rust); format: in vivo; conditions: foliar, 24 h, 200 ppm in the applied formulation, wheat leaf segments cv. Kanzler, curative (applied 1 day after inoculation), compared to untreated, read-out: disease control
Method in brief: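 Read-out is percent disease control relative to untreated segments, assessed 6 to 8 days after treatment once check disease is adequate. Kanzler wheat leaf segments on agar receive fungal spores, then test compound (DMSO stock diluted in 0.025% Tween20 or water) 1 day later, under 19° C and 75% relative humidity.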

[2] = test system: Puccinia recondita f. Sp. Tritici; assay: Puccinia recondita f. sp. tritici / wheat / leaf disc preventative (brown rust); format: in vivo; conditions: foliar, 200 ppm in the applied formulation, wheat leaf segments cv. Kanzler, preventative (inoculated 1 day after application), compared to untreated, read-out: disease control
Method in brief: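 Wheat cv. Kanzler leaf segments on agar sprayed with diluted compound, inoculated with brown rust spores 1 day later. Kept at 19° C., 75% rh, 12 h light/dark; percent disease control versus untreated segments scored 7 to 9 days after application, compounds tested at 200 ppm.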

[3] = test system: Glomerella lacenarium (Colletotrichum lagenarium); assay: Glomerella lagenarium liquid culture / cucumber / preventative (anthracnose); format: cell-based; conditions: Colletotrichum orbiculare; 20 ppm in the applied formulation; liquid culture (PDB), growth inhibition measured photometrically 3 to 4 days after application; compared to untreated; read-out: disease control
Method in brief: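 Conidia from cryogenic storage were mixed into potato dextrose broth. This was added to compound diluted from DMSO into 0.025% Tween20, tested at 20 ppm. Plates were incubated in the dark at 24 °C and 96% relative humidity, and growth was read photometrically after 2–7 days as % activity versus untreated check.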

Phakopsora pachyrhizi = Phakopsora pachyrhizi / soybean / leaf disc preventative (Asian soybean rust); format: in vivo; conditions: foliar, 200 ppm in the applied formulation, soybean leaf disks, compared to untreated, read-out: disease control
Method: Leaf disks or leaf segments of various plant species are cut from plants grown in a greenhouse. The cut leaf disks or segments are placed in multiwell plates (24-well format) onto water agar. The leaf disks are sprayed with a test solution before (preventative) or after (curative) inoculation. Compounds to be tested are prepared as DMSO solutions (max. 10 mg/ml) which are diluted to the appropriate concentration with 0.025% Tween20 just before spraying. The inoculated leaf disks or segments are incubated under defined conditions (temperature, relative humidity, light, etc.) according to the respective test system. A single evaluation of disease level is carried out 3 to 14 days after inoculation, depending on the pathosystem. Percent disease control relative to the untreated check leaf disks or segments is then calculated.
Soybean leaf disks are placed on water agar in multiwell plates (24-well format) and sprayed with the formulated test compound diluted in water. One day after application leaf discs are inoculated by spraying a spore suspension on the lower leaf surface. After an incubation period in a climate cabinet of 24-36 hours in darkness at 20° C. and 75% rh leaf disc are kept at 20° C. with 12 h light/day and 75% rh. The activity of a compound is assessed as percent disease control compared to untreated when an appropriate level of disease damage appears in untreated check leaf disks (12 to 14 days after application).
The following compounds at 200 ppm in the applied formulation give at least 80% disease control in this test when compared to untreated control leaf disks under the same conditions, which show extensive disease development.

O=C(NCc1ccc(-c2noc(C(F)(F)F)n2)cc1)OCCF [Compound 2.15, 2-fluoroethyl N-[[4-[5-(trifluoromethyl)-1,2,4-oxadiazol-3-yl]phenyl]methyl]carbamate]
≥ 80%: pest or weed control at 200 ppm [1] | pest or weed control at 200 ppm [2] | inhibition of growth at 20 ppm [3] | pest or weed control at 200 ppm (Phakopsora pachyrhizi)

CCCC(=O)NCc1ccc(-c2noc(C(F)(F)F)n2)c(F)c1F [Compound 1.51, N-[[2,3-difluoro-4-[5-(trifluoromethyl)-1,2,4-oxadiazol-3-yl]phenyl]methyl]butanamide]
≥ 80%: pest or weed control at 200 ppm [1] | pest or weed control at 200 ppm [2] | inhibition of growth at 20 ppm [3] | pest or weed control at 200 ppm (Phakopsora pachyrhizi)

COCCCC(=O)NCCc1ccc(-c2noc(C(F)(F)F)n2)cc1 [Compound 1.89, 4-methoxy-N-[2-[4-[5-(trifluoromethyl)-1,2,4-oxadiazol-3-yl]phenyl]ethyl]butanamide]
≥ 80%: pest or weed control at 200 ppm [1] | pest or weed control at 200 ppm [2] | inhibition of growth at 20 ppm [3] | pest or weed control at 200 ppm (Phakopsora pachyrhizi)

C=CCOC(=O)NCc1ccc(-c2noc(C(F)(F)F)n2)cc1 [Compound 2.10, allyl N-[[4-[5-(trifluoromethyl)-1,2,4-oxadiazol-3-yl]phenyl]methyl]carbamate]
≥ 80%: pest or weed control at 200 ppm [1] | pest or weed control at 200 ppm [2] | inhibition of growth at 20 ppm [3] | pest or weed control at 200 ppm (Phakopsora pachyrhizi)

CC(C)(C)CC(=O)NCc1ccc(-c2noc(C(F)(F)F)n2)cc1 [Compound 1.15, 3,3-dimethyl-N-[[4-[5-(trifluoromethyl)-1,2,4-oxadiazol-3-yl]phenyl]methyl]butanamide]
≥ 80%: pest or weed control at 200 ppm [1] | pest or weed control at 200 ppm [2] | inhibition of growth at 20 ppm [3] | pest or weed control at 200 ppm (Phakopsora pachyrhizi)

COCC(=O)NCc1ccc(-c2noc(C(F)(F)F)n2)cc1F [Compound 1.38, N-[[2-fluoro-4-[5-(trifluoromethyl)-1,2,4-oxadiazol-3-yl]phenyl]methyl]-2-methoxy-acetamide]
≥ 80%: pest or weed control at 200 ppm [1] | pest or weed control at 200 ppm [2] | inhibition of growth at 20 ppm [3] | pest or weed control at 200 ppm (Phakopsora pachyrhizi)

O=C(CC(F)(F)F)NCc1ccc(-c2noc(C(F)(F)F)n2)cc1F [Compound 1.46, 3,3,3-trifluoro-N-[[2-fluoro-4-[5-(trifluoromethyl)-1,2,4-oxadiazol-3-yl]phenyl]methyl]propanamide]
≥ 80%: pest or weed control at 200 ppm [1] | pest or weed control at 200 ppm [2] | inhibition of growth at 20 ppm [3] | pest or weed control at 200 ppm (Phakopsora pachyrhizi)

O=C(NCc1ccc(-c2noc(C(F)(F)F)n2)cc1)OCCCl [Compound 2.17, 2-chloroethyl N-[[4-[5-(trifluoromethyl)-1,2,4-oxadiazol-3-yl]phenyl]methyl]carbamate]
≥ 80%: pest or weed control at 200 ppm [1] | pest or weed control at 200 ppm [2] | inhibition of growth at 20 ppm [3] | pest or weed control at 200 ppm (Phakopsora pachyrhizi)

CCC(C)C(=O)NCc1ccc(-c2noc(C(F)(F)F)n2)cc1F (stereo not shown) [Compound 1.41, N-[[2-fluoro-4-[5-(trifluoromethyl)-1,2,4-oxadiazol-3-yl)phenyl]methyl]-2-methyl-butanamide]
≥ 80%: pest or weed control at 200 ppm [1] | pest or weed control at 200 ppm [2] | inhibition of growth at 20 ppm [3] | pest or weed control at 200 ppm (Phakopsora pachyrhizi)

O=C(CC(F)(F)F)NCc1ccc(-c2noc(C(F)(F)F)n2)c(F)c1F [Compound 1.63, N-[[2,3-difluoro-4-[5-(trifluoromethyl)-1,2,4-oxadiazol-3-yl]phenyl]methyl]-3,3,3-trifluoro-propanamide]
≥ 80%: pest or weed control at 200 ppm [1] | pest or weed control at 200 ppm [2] | inhibition of growth at 20 ppm [3] | pest or weed control at 200 ppm (Phakopsora pachyrhizi)

COCC(=O)NC(C)(C)c1ccc(-c2noc(C(F)(F)F)n2)cc1 [Compound 1.95, 2-methoxy-N-[1-methyl-1-[4-[5-(trifluoromethyl)-1,2,4-oxadiazol-3-yl]phenyl]ethyl]acetamide]
≥ 80%: pest or weed control at 200 ppm [1] | pest or weed control at 200 ppm [2] | inhibition of growth at 20 ppm [3] | pest or weed control at 200 ppm (Phakopsora pachyrhizi)

CCCCOC(=O)NCc1ccc(-c2noc(C(F)(F)F)n2)cc1 [Compound 2.11, butyl N-[[4-[5-(trifluoromethyl)-1,2,4-oxadiazol-3-yl]phenyl]methyl]carbamate]
≥ 80%: pest or weed control at 200 ppm [1] | pest or weed control at 200 ppm [2] | inhibition of growth at 20 ppm [3] | pest or weed control at 200 ppm (Phakopsora pachyrhizi)

CCCC(=O)NCCc1ccc(-c2noc(C(F)(F)F)n2)cc1 [Compound 1.84, N-[2-[4-[5-(trifluoromethyl)-1,2,4-oxadiazol-3-yl]phenyl]ethyl]butanamide]
≥ 80%: pest or weed control at 200 ppm [1] | pest or weed control at 200 ppm [2] | inhibition of growth at 20 ppm [3] | pest or weed control at 200 ppm (Phakopsora pachyrhizi)

CC(C)COC(=O)NCc1ccc(-c2noc(C(F)(F)F)n2)cc1 [Compound 2.8, isobutyl N-[[4-[5-(trifluoromethyl)-1,2,4-oxadiazol-3-yl]phenyl]methyl]carbamate]
≥ 80%: pest or weed control at 200 ppm [1] | pest or weed control at 200 ppm [2] | inhibition of growth at 20 ppm [3] | pest or weed control at 200 ppm (Phakopsora pachyrhizi)

CC(C)C(=O)NCc1ccc(-c2noc(C(F)(F)F)n2)c(F)c1 [Compound 1.77, N-[[3-fluoro-4-[5-(trifluoromethyl)-1,2,4-oxadiazol-3-yl]phenyl]methyl]-2-methyl-propanamide]
≥ 80%: pest or weed control at 200 ppm [1] | pest or weed control at 200 ppm [2] | inhibition of growth at 20 ppm [3] | pest or weed control at 200 ppm (Phakopsora pachyrhizi)

CC(C)CC(=O)NCc1ccc(-c2noc(C(F)(F)F)n2)cc1 [Compound 1.12, 3-methyl-N-[[4-[5-(trifluoromethyl)-1,2,4-oxadiazol-3-yl]phenyl]methyl]butanamide]
≥ 80%: pest or weed control at 200 ppm [1] | pest or weed control at 200 ppm [2] | inhibition of growth at 20 ppm [3] | pest or weed control at 200 ppm (Phakopsora pachyrhizi)

CCC(C)C(=O)NCc1ccc(-c2noc(C(F)(F)F)n2)cc1 (stereo not shown) [Compound 1.17, 2-methyl-N-[[4-[5-(trifluoromethyl)-1,2,4-oxadiazol-3-yl]phenyl]methyl]butanamide]
≥ 80%: pest or weed control at 200 ppm [1] | pest or weed control at 200 ppm [2] | inhibition of growth at 20 ppm [3] | pest or weed control at 200 ppm (Phakopsora pachyrhizi)

COCCC(=O)NCCc1ccc(-c2noc(C(F)(F)F)n2)cc1 [Compound 1.85, 3-methoxy-N-[2-[4-[5-(trifluoromethyl)-1,2,4-oxadiazol-3-yl]phenyl]ethyl]propanamide]
≥ 80%: pest or weed control at 200 ppm [1] | pest or weed control at 200 ppm [2] | inhibition of growth at 20 ppm [3] | pest or weed control at 200 ppm (Phakopsora pachyrhizi)

COCCCC(=O)NCc1ccc(-c2noc(C(F)(F)F)n2)cc1 [Compound 1.21, 4-methoxy-N-[[4-[5-(trifluoromethyl)-1,2,4-oxadiazol-3-yl]phenyl]methyl]butanamide]
≥ 80%: pest or weed control at 200 ppm [1] | pest or weed control at 200 ppm [2] | inhibition of growth at 20 ppm [3] | pest or weed control at 200 ppm (Phakopsora pachyrhizi)
